Experimental findings from patent US9725449B2, “Tricyclic compounds as anticancer agents” (BRISTOL-MYERS SQUIBB COMPANY, priority 2015, dated 2017) are described below.

Molecules are shown by their SMILES. Bounds are passed on as bounds.

The target of the experiment is BRD4 (Homo sapiens, UniProt O60885). Put plainly: Time resolved fluorescence resonance energy transfer (TR-FRET) binding assay, bromodomain BRD4. To be noted: one of the FRET assays described; read-out: FRET BRD4 IC50.
For the compound `COc1ccc2c3ncc(-c4c(C)nnn4C)cc3n(C(c3cccc(F)c3)C3CCOCC3)c2n1` (racemic) [Example 16, 5-(Dimethyl-1H-1,2,3-triazol-5-yl)-8-[(3-fluorophenyl)(oxan-4-yl)methyl]-11-methoxy-3,8,10-triazatricyclo[7.4.0.0^2,^7]trideca-1(13),2(7),3,5,9,11-hexaene], the IC50 was below 10 nM.
For `[2H]C([2H])([2H])c1nnn(C)c1-c1cnc2c3ccc(N4CCN(C(C)C)CC4)nc3n([C@H](c3ccccc3)C3CCOCC3)c2c1` [Example 153, 5-[4-(^2H3)Methyl-1-methyl-1H-1,2,3-triazol-5-yl]-8-[(S)-oxan-4-yl(phenyl)methyl]-11-[4-(propan-2-yl)piperazin-1-yl]-3,8,10-triazatricyclo[7.4.0.0^2,^7]trideca-1(9),2(7),3,5,10,12-hexaene] the value was below 10 nM; for `[2H]C([2H])([2H])c1nnn(C)c1-c1cnc2c3ccc(N4CCN(C([2H])([2H])[2H])CC4)nc3n([C@H](c3ccccc3)C3CCOCC3)c2c1` [Example 249, 5-[4-(^2H3)Methyl-1-methyl-1H-1,2,3-triazol-5-yl]-11-[4-(^2H3)methylpiperazin-1-yl]-8-[(S)-oxan-4-yl(phenyl)methyl]-3,8,10-triazatricyclo[7.4.0.0^2,^7]trideca-1(13),2(7),3,5,9,11-hexaene], below 10 nM; for `[2H]C([2H])([2H])c1nnn(C)c1-c1cnc2c3c(OCC4CCCO4)ncc(S(C)(=O)=O)c3n([C@H](c3ccccc3)C3CCOCC3)c2c1` (stereo partly drawn) [Example 109, 10-Methanesulfonyl-5-[4-(^2H3)methyl-1-methyl-1H-1,2,3-triazol-5-yl]-8-[(S)-oxan-4-yl(phenyl)methyl]-13-[(2R)-oxolan-2-ylmethoxy]-3,8,12-triazatricyclo[7.4.0.0^2,^7]trideca-1(13),2(7),3,5,9,11-hexaene], below 10 nM.
For `COCCNc1nccc2c3ncc(-c4c(C)nnn4C)cc3n([C@H](c3ccccc3)C3CCOCC3)c12` [Example 9, 5-(Dimethyl-1H-1,2,3-triazol-5-yl)-N-(2-methoxyethyl)-8-[(S)-oxan-4-yl(phenyl)methyl]-3,8,11-triazatricyclo[7.4.0.0^2,^7]trideca-1(13),2(7),3,5,9,11-hexaen-10-amine] the value was below 10 nM; for `[2H]C([2H])([2H])c1nnn(C)c1-c1cnc2c3ccc(N4CCN(C(C)(C)C)CC4)nc3n([C@H](c3ccccc3)C3CCOCC3)c2c1` [Example 152, 11-(4-tert-Butylpiperazin-1-yl)-5-[4-(^2H3)methyl-1-methyl-1H-1,2,3-triazol-5-yl]-8-[(S)-oxan-4-yl(phenyl)methyl]-3,8,10-triazatricyclo[7.4.0.0^2,^7]trideca-1(9),2(7),3,5,10,12-hexaene], below 10 nM.
For `Cc1nnn(C)c1-c1cnc2c3ccc(-c4cnn(C(C)C)c4)nc3n([C@H](c3ccccc3)C3CCOCC3)c2c1` [Example 149, 5-(Dimethyl-1H-1,2,3-triazol-5-yl)-8-[(S)-oxan-4-yl(phenyl)methyl]-11-[1-(propan-2-yl)-1H-pyrazol-4-yl]-3,8,10-triazatricyclo[7.4.0.0^2,^7]trideca-1(13),2(7),3,5,9,11-hexaene] the value was below 10 nM.
As for `[2H]C([2H])([2H])c1nnn(C)c1-c1cc2c(cn1)c1ncc(C(C)(C)O)cc1n2[C@H](c1ccccc1)C1CCOCC1` [Example 364, 2-{11-[4-(^2H3)Methyl-1-methyl-1H-1,2,3-triazol-5-yl]-8-[(S)-(oxan-4-yl)(phenyl)methyl]-3,8,12-triazatricyclo[7.4.0.0^2,^7]trideca-1(9),2,4,6,10,12-hexaen-5-yl}propan-2-ol], the IC50 is below 10 nM.
Turning to `[2H]C([2H])([2H])c1nnn(C)c1-c1cnc2c3ccc(-c4c(C([2H])([2H])[2H])nnn4C)nc3n(C(c3ncccc3F)C3CCOCC3)c2c1` (centres unmarked) [Example 248, 8-[(3-Fluoropyridin-2-yl)(oxan-4-yl)methyl]-5,11-bis[4-(^2H3)methyl-1-methyl-1H-1,2,3-triazol-5-yl]-3,8,10-triazatricyclo[7.4.0.0^2,^7]trideca-1(13),2(7),3,5,9,11-hexaene], the IC50 was below 10 nM.
As for `C=C(OCC)c1cc2c(cn1)c1ncc(-c3c(C)noc3C)cc1n2[C@H](c1ccc(F)cc1)C1CCOCC1` [Example 329, 5-(Dimethyl-1,2-oxazol-4-yl)-11-(1-ethoxyethenyl)-8-[(S)-(4-fluorophenyl)(oxan-4-yl)methyl]-3,8,12-triazatricyclo[7.4.0.0^2,^7]trideca-1(9),2(7),3,5,10,12-hexaene], the IC50 is below 10 nM.
As for `[2H]C([2H])([2H])c1nnn(C)c1-c1cnc2c3c(N(C)CC)ncc(S(C)(=O)=O)c3n([C@H](c3ccccc3)C3CCOCC3)c2c1` [Example 115, N-Ethyl-10-methanesulfonyl-N-methyl-5-[4-(^2H3)methyl-1-methyl-1H-1,2,3-triazol-5-yl]-8-[(S)-oxan-4-yl(phenyl)methyl]-3,8,12-triazatricyclo[7.4.0.0^2,^7]trideca-1(13),2(7),3,5,9,11-hexaen-13-amine], the concentration for half-maximal inhibition (IC50) is below 1 nM.
With `[2H]C([2H])([2H])c1nnn(C)c1-c1cnc2c3c(OCC4CC4)ncc(S(C)(=O)=O)c3n([C@H](c3ccccc3)C3CCC(F)(F)CC3)c2c1` [Example 94, 13-(Cyclopropylmethoxy)-8-[(S)-(4,4-difluorocyclohexyl)(phenyl)methyl]-10-methanesulfonyl-5-[4-(^2H3)methyl-1-methyl-1H-1,2,3-triazol-5-yl]-3,8,12-triazatricyclo[7.4.0.0^2,^7]trideca-1(13),2(7),3,5,9,11-hexaene], the IC50 was below 10 nM.
Turning to `COc1nccc2c3ncc(-c4c(C)nnn4C)cc3n(C(c3ccccc3F)C3CCOCC3)c12` (single isomer, unassigned) [Example 19, 5-(Dimethyl-1H-1,2,3-triazol-5-yl)-8-[(2-fluorophenyl)(oxan-4-yl)methyl]-10-methoxy-3,8,11-triazatricyclo[7.4.0.0^2,^7]trideca-1(13),2(7),3,5,9,11-hexaene], the IC50 was below 10 nM.
On to `[2H]C([2H])([2H])c1nnn(C)c1-c1cnc2c3ccc(-c4ccc(C(C)(C)O)s4)nc3n([C@H](c3ccccc3)C3CCOCC3)c2c1` [Example 176, 2-(5-{5-[4-(^2H3)Methyl-1-methyl-1H-1,2,3-triazol-5-yl]-8-[(S)-oxan-4-yl(phenyl)methyl]-3,8,10-triazatricyclo[7.4.0.0^2,^7]trideca-1(9),2(7),3,5,10,12-hexaen-11-yl}thiophen-2-yl)propan-2-ol], for which the 50% inhibitory concentration (IC50) was below 10 nM.
Next, `Cc1nnn(C)c1-c1cnc2c3c(N(C)C)ncc(Cl)c3n([C@H](c3ccccc3)C3CCOCC3)c2c1` [Example 41, 10-Chloro-5-(dimethyl-1H-1,2,3-triazol-5-yl)-N,N-dimethyl-8-[(S)-oxan-4-yl(phenyl)methyl]-3,8,12-triazatricyclo[7.4.0.0^2,^7]trideca-1(13),2(7),3,5,9,11-hexaen-13-amine]: below 1 nM; `Cc1nnn(C)c1-c1cnc2c3cncc(S(C)(=O)=O)c3n(C(c3ccccc3)C3CCC(F)(F)CC3)c2c1` (centres unmarked) [Example 289, 8-[(4,4-Difluorocyclohexyl)(phenyl)methyl]-5-(dimethyl-1H-1,2,3-triazol-5-yl)-10-methanesulfonyl-3,8,12-triazatricyclo[7.4.0.0^2,^7]trideca-1(13),2(7),3,5,9,11-hexaene]: below 1500 nM.
For `[2H]C([2H])([2H])c1nnn(C)c1-c1cnc2c3c(OC(C)C)ncc(S(C)(=O)=O)c3n(C(c3ncccc3F)C3CCOCC3)c2c1` (centres unmarked) [Example 71, 8-[(3-Fluoropyridin-2-yl)(oxan-4-yl)methyl]-10-methanesulfonyl-5-[4-(^2H3)methyl-1-methyl-1H-1,2,3-triazol-5-yl]-13-(propan-2-yloxy)-3,8,12-triazatricyclo[7.4.0.0^2,^7]trideca-1(13),2(7),3,5,9,11-hexaene], the IC50 was below 1500 nM.
`Cc1cccnc1C(C1CCOCC1)n1c2cc(-c3c(C)nnn3C)ncc2c2ncc(C(C)(C)O)cc21` (single isomer, unassigned) [Example 373]: the 50% inhibitory concentration (IC50) is below 1500 nM.
For the compound `[2H]C([2H])([2H])c1nnn(C)c1-c1cnc2c3c(F)c(C(C)(C)O)ncc3n([C@H](c3ccccc3)C3CCOCC3)c2c1` [Example 292, 2-{13-Fluoro-5-[4-(^2H3)methyl-1-methyl-1H-1,2,3-triazol-5-yl]-8-[(S)-oxan-4-yl(phenyl)methyl]-3,8,11-triazatricyclo[7.4.0.0^2,^7]trideca-1(13),2(7),3,5,9,11-hexaen-12-yl}propan-2-ol], the IC50 was below 10 nM.
Next, `COc1ncc(Cl)c2c1c1ncc(-c3c(C)nnn3C)cc1n2[C@H](c1ccccc1)C1CCOCC1` [Example 40, 10-Chloro-5-(dimethyl-1H-1,2,3-triazol-5-yl)-13-methoxy-8-[(S)-oxan-4-yl(phenyl)methyl]-3,8,12-triazatricyclo[7.4.0.0^2,^7]trideca-1(13),2(7),3,5,9,11-hexaene]: below 1 nM.
As to `Cc1noc(C)c1-c1cnc2c3cnc(C(C)(C)O)cc3n([C@H](c3ccccc3)C3CCOCC3)c2c1` [Example 335], the IC50 is below 10 nM.
Regarding `Cc1cnn(C)c1-c1ccc2c3ncc(-c4c(C)nnn4C)cc3n([C@H](c3ccccc3)C3CCOCC3)c2n1` [Example 148, 5-(Dimethyl-1H-1,2,3-triazol-5-yl)-11-(1,4-dimethyl-1H-pyrazol-5-yl)-8-[(S)-oxan-4-yl(phenyl)methyl]-3,8,10-triazatricyclo[7.4.0.0^2,^7]trideca-1(13),2(7),3,5,9,11-hexaene], the IC50 was below 10 nM.
For `[2H]C([2H])([2H])c1nnn(C)c1-c1cnc2c3ccc(N4CCS(=O)(=O)CC4)nc3n([C@H](c3ccccc3)C3CCOCC3)c2c1` [Example 185, 4-{5-[4-(^2H3)Methyl-1-methyl-1H-1,2,3-triazol-5-yl]-8-[(S)-oxan-4-yl(phenyl)methyl]-3,8,10-triazatricyclo[7.4.0.0^2,^7]trideca-1(9),2(7),3,5,10,12-hexaen-11-yl}-1λ^6,4-thiomorpholine-1,1-dione], the IC50 is below 10 nM.

As a reminder, the IC50 is the concentration that gives 50% inhibition.
